Literature values, collected in US10736931B2, “Pharmaceutical compositions comprising plant extracts and methods for reducing duration of a common cold using same” (Matrixx Initiatives, Inc., priority 2014, dated 2020).

Target: acetylcholine esterase (Homo sapiens, UniProt P22303)
Conditions: ceramides from L. operculata; Feitosa et al. 2011

Sequence of acetylcholine esterase (P22303 32-614): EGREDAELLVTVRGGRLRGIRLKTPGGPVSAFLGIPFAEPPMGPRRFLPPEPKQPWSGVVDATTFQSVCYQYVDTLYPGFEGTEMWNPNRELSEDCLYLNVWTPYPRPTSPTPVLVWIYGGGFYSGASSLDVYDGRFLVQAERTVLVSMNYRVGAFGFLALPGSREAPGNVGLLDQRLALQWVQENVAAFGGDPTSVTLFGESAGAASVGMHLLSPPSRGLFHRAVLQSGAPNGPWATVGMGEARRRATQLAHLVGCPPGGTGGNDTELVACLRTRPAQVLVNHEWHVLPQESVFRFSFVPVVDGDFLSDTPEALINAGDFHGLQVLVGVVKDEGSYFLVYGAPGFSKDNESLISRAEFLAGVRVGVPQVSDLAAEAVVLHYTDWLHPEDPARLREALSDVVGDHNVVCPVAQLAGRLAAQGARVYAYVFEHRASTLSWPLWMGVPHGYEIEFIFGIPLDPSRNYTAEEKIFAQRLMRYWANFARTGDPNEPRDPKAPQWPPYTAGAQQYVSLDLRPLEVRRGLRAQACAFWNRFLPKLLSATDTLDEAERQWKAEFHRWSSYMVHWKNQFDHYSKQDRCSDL

ceramides
acetylcholine esterase inhibitory effects: high
